Source: patent publication US11679123B2, “N-acylated hyaluronic acid for hyperuricemia and gouty arthritis” (Queen's University at Kingston, priority 2018, dated 2023)

Key:
[1] = test system: rats with MSU-induced acute gout; test: MSU crystal-induced acute gout in rats: ankle swelling ratio; type: in vivo, Wistar rats; details: P<0.01; for ankle swelling in comparison with the MSU treated group: at 4 h, 12 h and 48 h
Procedure: Male Wistar rats (n=50, 8 weeks: 160-200 g) were purchased from Liaoning Changsheng Biotechnology Company Ltd, Jilin, China (SCXK (Liao)-2015-0001). These rats were housed in plastic cages and maintained on a 12-h light/12-h dark cycle (lights on 7:00-19:00 h) under standard laboratory conditions of 55% relative humidity and at 23° C.±1° C. They were given standard chow (Liaoning Changsheng Biotechnology Company Ltd, Jilin, China) and tap water ad libitum. All experimental procedures were approved by the Animal Ethics Committee of Jilin University (Reference NO. 201605).
An experimental model of MSU-induced gouty arthritis was used in order to evaluate the anti-inflammatory activities of BHA. Rats were randomly divided into five groups (n=10), include a control group (NC), a model group (MC), a 0.3 mg/kg colchicine group (COL), a 10 μg BHA group (10BHA) and a 50 μg BHA group (50BHA). MSU crystals were suspended in 0.9% sterile saline (30 mg/mL) prior to use. The colchicine group rats were orally administrated colchicine (0.3 mg/kg) for 8 days, and all rats except for the control group were injected with 3 mg of MSU (Sigma, USA) at the 6th day into the right ankle synovial space 1 h after gavage feeding. Meanwhile a turbid sample of MSU mixed with 100 μg of BHA or 500 μg of BHA per mL of solution for 10BHA rats or 50BHA rats. At the 8th day, 1 h after the administration of the final agents, blood was sampled from the caudal veins of the rats and the right ankle joints of the rats were collected and fixed in 4% paraformaldehyde. Serum was separated and stored at −80° C. prior to analysis (FIG. 2A, E).
The right ankle circumferences of all rats at 0, 4, 12, 24 and 48 h after MSU injection were measured. The swelling ratio (%) was used to evaluate the gouty arthritis and calculated according to the change of the circumference via the formula: Swelling ratio (%)=(Ct−C0)/C0, wherein, Ct represented the circumference at time t (in h) and C0 represented the circumference at 0 h.

[2] = test system: inflammatory cell infiltration in the synovium; test: Histopathological assessment of ankle joint synovium (H&E) in MSU crystal-injected rats; type: in vivo, Wistar rats
Procedure: In one study, a histopathological assessment was conducted of synovium in ankle joints of rats after H&E staining. The right ankles of […] were excised and fixed in 4% paraformaldehyde, and subsequently decalcified using 10% ethylenediaminetetraacetic acid. They were then dehydrated via processing in alcohol/xylene mixtures with different proportions and concentrations. The histological sections were stained with hematoxylin and eosin. The histopathological changes of the joint synovium were assessed for the degree of inflammatory cell infiltrate, by an experienced histopathologist. Microscopy at magnifications of 40×, 100×, 200× and 400× were investigated for typical areas for each of the five groups.
The right ankles of rats were collected and fixed in 4% paraformaldehyde, and subsequently decalcified using 10% ethylenediaminetetraacetic acid. They were then dehydrated by processing in alcohol/xylene mixtures with different proportions and concentrations. The histological sections were later stained with hematoxylin and eosin for observation under an optical microscope (200×). The histopathological changes were analyzed with regard to deformaties of the joint synovium and infiltration by inflammatory cells into the ankle.

[3] = test system: creatinine (Cr) and blood urea nitrogen (BUN); test: Cr and urea nitrogen in serum and liver of hyperuricemic mice (renal function); type: in vivo, Balb/C mice; details: for lowering of Cr in the serum / lowering of urea nitrogen in the liver: BHA, P<0.05
Procedure: Due to the presence of uricase in mice, a hyperuricemic mouse model was established by using uricase inhibitor and large amounts of purine. Mice were randomly divided into five groups (n=10), including the control group (NC), model group (MC), 20 mg/kg of AL (Shimao Tianjie Pharmaceutical Co. Ltd, Jiangsu, China) group, 10 μg BHA group (10BHA) and 50 μg BHA group (50BHA). Oral administration of AL and intraperitoneal injection of BHA were administered according to the required dose, and all mice were gavage fed 20 g/kg yeast extract powder 12 h prior to the administration of AL and BHA except for NC mice for 8 days. From the 6th to 8th day, 1-h prior to AL and BHA administration, 300 mg/kg of OXO (Sigma, USA) was intraperitoneally injected to all of the mice except those in the control group. At 1 h after the final drug administration, blood was sampled from caudal veins of the mice, serum was separated and their livers were quickly collected (FIG. 3A, E). All samples were stored at −80° C. until assay measurements were performed.
The levels of reactive oxygen species (ROS, 43355), malondialdehyde (MDA, 43124) glutathione peroxidase (GSH-Px, 43390), superoxide dismutase (SOD, 43125), catalase (CAT, 43356), creatinine (Cr, 43353) and blood urea nitrogen (BUN, 43352) in the serum and livers of mice were determined using ELISA Kits (Yuanye Bio-Technology Co. Ltd, Shanghai, China) according to the manufacturer's instructions.

How did the swelling ratio reduction ([1]; 10 μg BHA, at 12 h (best suppression)) turn out when N-butyrylated HA [BHA] was run?
Its swelling ratio reduction is 11.0%.

What about the swelling ratio reduction ([1]; 50 μg BHA, at 48 h (best suppression)) of the same substance?
The swelling ratio reduction was 9.5%.

What about the “ankle swelling in comparison with the MSU treated group” value ([1]; BHA 10 μg) of the same substance?
Its value is “suppressed the ankle swelling”.

What about the “ankle swelling in comparison with the MSU treated group” value ([1]; BHA 50 μg) of the same substance?
The value was “suppressed the ankle swelling”.

And the “pathological changes (inflammatory cell infiltration) in synovium” value ([2]; 10 μg of BHA, MSU crystal-injected rats, H&E)?
The value was “partially prevented the pathological changes”.

And the “attenuation of inflammatory cell infiltration in synovium” value ([2]; higher dose BHA (50BHA, 50 μg))?
The value was “not as effective as the 10BHA dose”.

What about the “lowering of Cr in the liver” value ([3]; 10 μg BHA, P<0.01) of the same substance?
The value was 8.14%.

What about the “lowering of Cr in the serum” value ([3]; second value listed (10 μg)) of the same substance?
The value was 8.21%.

What about the “lowering of urea nitrogen in the liver” value ([3]; second value listed (10 μg)) of the same substance?
The value was 11.65%.

And the “lowering of Cr in the serum” value ([3]; third value listed (50 μg))?
Its value is 12.02%.

What about the “lowering of urea nitrogen in the liver” value ([3]; third value listed (50 μg)) of the same substance?
Its value is 12.81%.
